Assay results: PMC9530166, “Allosteric regulation of glycogen breakdown by the second messenger cyclic di-GMP” (Nature Communications, 2022)
“Also recorded” adds a separate entry of the source.

Tests used:
His6-GlgXDLVR(212-215) = experiment: nanoDSF thermal shift assay, RLVD212-215 swap mutant; assay type: binding, Streptomyces venezuelae; conditions: His6-GlgXDLVR(212-215) mutant
Description: Arginine and aspartic acid arranged in an RxxD motif are often found as c-di-GMP binding signatures in effector proteins[28],[34]. […] To determine if either of these motifs are involved in c-di-GMP binding, we swapped the arginine and aspartic acid residues in the two motifs and purified His6-GlgXDETR(49-52) and His6-GlgXDLVR(212-215).
For label-free thermal shift assay experiments, 10 μM purified protein in 25 mM Tris pH 8, 150 mM NaCl, 2.5% (v/v) glycerol, and 5 mM MgCl2 was incubated without or with (1 mM) of nonlabeled c-di-GMP or c-di-AMP, respectively, at rt for 10 min. Reactions were subsequently analyzed in a Tycho NT.6 (NanoTemper Technologies) device with a 30 K/min thermal ramp and the internal fluorescence at 330 and 350 nm was recorded. Data analysis and calculation of derivatives was done using the internal evaluation features of the Tycho instrument.
217 Supplementary Fig. 5: NanoDSF assays with mutagenized His6-GlgX variants. (a) Swap of the
219 This was confirmed by DRaCALA, right. For DRaCALA assays, 15 µg of purified E. coli His6-GlgX
220 or His6-Vnz25270, respectively, were mixed with 0.5 µl of [32P]-c-di-GMP (Hartmann Analytic
221 GmbH, Braunschweig) in binding buffer (25 mM Tris pH 8.0, 150 mM NaCl, 2.5% (v/v) glycerol
222 and 5 mM MgCl2). […]
223 air dried for 10 min and analyzed by phosphorimaging. […]

His6-GlgX = experiment: Bicinchoninic acid (BCA) reducing-end enzyme assay, wild-type GlgX; assay type: biochemical, Streptomyces venezuelae; conditions: for stimulation of GlgX hydrolysis of substrate: 1 µM His6-GlgX, 50 µM c-di-GMP
Excerpt: Glycogen debranching enzymes hydrolyze α-(1→6)-linked glucan branches, producing malto-oligosaccharides with reducing ends[7]. The bicinchoninic acid (BCA) assay allows accurate photometric determination of reducing ends from oligosaccharides and is based on the reduction of Cu^2+ to Cu^+. A purple copper bicinchoninate complex with an absorbance maximum at 562 nm forms from Cu^+ and bicinchoninate. […] In addition, we tested the effect of c-di-GMP on GlgX activity by using polysaccharides with different degrees of α-(1→6)-linked glucans as a substrate (Fig. 2b). While glycogen contains α-(1→6)-linked glucan branches every 8–10 residue, amylose is essentially an unbranched chain of α−1,4-linked glucose subunits. Amylopectin is composed of α−1,4-linked glucose units with α-(1→6)-linkages at intervals of ∼20 units. Pullulan is a polysaccharide polymer consisting of maltotriose units in which the three glucose units are connected by α−1,4-glycosidic bonds. Consecutive maltotriose units are linked by a α−1,6-glycosidic bond.
(§1) Fig. 2 c-di-GMP stimulates glycogen breakdown activity of GlgX in vitro. a Bicinchoninic acid (BCA) in vitro enzyme assay. The purple copper bicinchoninate complex indicating GlgX-mediated generation of reducing ends in glycogen was quantified by photometric measurements at 562 nm. A562 values were converted into reducing ends [µM glucose equivalents] based on D-glucose as a standard. Reactions contained 0.05% (w/v) glycogen from rabbit, 1 µM GlgX and increasing concentrations of c-di-GMP (0–100 µM). Source data are provided as a Source data file. b BCA assay containing 0.05% of either glycogen from rabbit, pullulan, amylopectin from maize or amylose from potato as substrates. Where appropriate, 1 µM GlgX or 50 µM c-di-GMP were added to the reaction samples. Source data are provided as a Source data file. c BCA assay as in a with or without c-di-GMP (50 µM), 0.05% glycogen from rabbit (S) and 1 µM Vnz25270, GlgX, the active site mutants GlgXD342A, GlgXE378A, GlgXD342A+E378A, or the c-di-GMP-binding mutant variant GlgXDETR49-52 as indicated. The experiment was performed three times, each time with two technical replicates. The data points represent the mean ± SD of six data points. Source data are provided as a Source data file.
Hydrolysis of carbohydrates was assessed in vitro by measuring the accumulation of reducing sugar ends using the BCA assay[42] and D-glucose as a standard for calibration (Supplementary Fig. 11). Purified enzyme was diluted to […] in 20 mM (N-2-hydroxyethylpiperazine-N′−2-ethanesulfonic acid) HEPES (pH 7.5; ionic strength, 160 mM [adjusted with NaCl]) containing 10 mM MgCl2 and […] c-di-GMP (BioLog). Samples were incubated at rt for 5 min and reactions were initiated by the addition of 0.05% of the relevant carbohydrate provided by Sigma-Aldrich: glycogen from rabbit (cat. no G8876); amylose from potato (cat. no A0512); amylopectin from maize (cat. no. 10120); and pullulan (P4516). The mixture was incubated at 37 °C in a heat block for 1 h. Next, an equal volume of BCA reagent solution (250 mM Na2CO3; 144 mM NaHCO3; 2.5 mM sodium bicinconinic acid (Sigma); 6 mM L-serine (Roth); 2.5 mM CuSO4 x 5 H2O (Roth)) was added, reactions were vortexed vigorously and incubated at 80 °C in a heat block for 30 min. Assay mixtures were then cooled to rt. 125 μl sample aliquots were transferred in duplicates to a 96 well plate and the absorbance at 562 nm was measured using a plate reader.

His6-GlgXDETR49-52 = experiment: BCA reducing-end enzyme assay, GlgXDETR49-52; assay type: biochemical, Streptomyces venezuelae; conditions: 50 µM c-di-GMP, 0.05% glycogen from rabbit, 1 µM enzyme
Description: as §1, with “The experiment was performed three times, each time with two technical replicates. The data points represent the mean ± SD of six data points. Source data are provided as a Source data file.” left out
(§2) Hydrolysis of carbohydrates was assessed in vitro by measuring the accumulation of reducing sugar ends using the BCA assay[42] and D-glucose as a standard for calibration (Supplementary Fig. 11). […] 125 μl sample aliquots were transferred in duplicates to a 96 well plate and the absorbance at 562 nm was measured using a plate reader.

His6-Vnz25270 = experiment: BCA reducing-end enzyme assay, Vnz25270; assay type: biochemical, Streptomyces venezuelae; conditions: 50 µM c-di-GMP, 0.05% glycogen from rabbit, 1 µM enzyme
Description: as §1, with “The experiment was performed three times, each time with two technical replicates. The data points represent the mean ± SD of six data points. Source data are provided as a Source data file.” left out
as §2

BldD = biological target: BldD; parameters: method as in PMID 25171413, PMID 31810759; conditions: cited from earlier work

Nc1nc2c(ncn2[C@@H]2O[C@@H]3CO[P@](=O)(O)O[C@H]4[C@@H](O)[C@H](n5cnc6c(=O)[nH]c(N)nc65)O[C@@H]4CO[P@](=O)(O)O[C@H]3[C@H]2O)c(=O)[nH]1 [c-di-GMP, bis-(3′−5′)-cyclic diguanosine monophosphate]
shift in melting/unfolding temperature by c-di-GMP (His6-GlgXDLVR(212-215)): still allows ligand binding; also recorded: still caused a shift
c-di-GMP concentration with saturating enzymatic activity (His6-GlgX; 0.05% glycogen from rabbit, 1 µM GlgX, c-di-GMP 3.125–100 µM): 50 µM
stimulation of GlgX hydrolysis of substrate (His6-GlgX; substrate 0.05% amylopectin): stimulates
stimulation of GlgX hydrolysis of substrate (His6-GlgX; substrate 0.05% amylose): no stimulation
stimulation of GlgX hydrolysis of substrate (His6-GlgX; substrate 0.05% glycogen): stimulates
stimulation of GlgX hydrolysis of substrate (His6-GlgX; substrate 0.05% pullulan): stimulates
effect of c-di-GMP on hydrolytic activity (His6-GlgXDETR49-52): remained at basal levels
effect of c-di-GMP on hydrolytic activity (His6-Vnz25270): remained at basal levels
Kd (BldD): 2500 ± 600 nM
